For experiment [1], the system named is Pseudomonas aeruginosa. Nature of the experiment: Antibiotic resistance profile by disc diffusion on MHA. Also: key: R = resistant; I = intermediate; S = sensitive. Format: cell-based. The settings on record: human burn isolate. The method, then:
(§1) The organisms of this study were isolated from human burn patients. They included strains of methicillin resistant Staphylococcus aureus, and vancomycin resistant strains of Pseudomonas aeruginosa and Enterococcus faecalis. The bacterial isolates were propagated in or on Brain Heart Infusion broth (BHI), Mueller-Hinton Broth (MHB), blood agar (BA), Mueller-Hinton agar (MHA), enterococcus agar (EA), or 2× nutrient agar (2×NA).
(§2) Antibiotic resistance profiles were determined by the disc diffusion method on MHA (5).

In experiment [2] the test system is Staphylococcus aureus. The description is as above. Type of experiment: cell-based. Conditions: human burn isolate. The method, then: as §1, §2
Experiment [3] concerns Enterococcus faecalis. Described as above. Conditions: human burn isolate. Type of experiment: cell-based. On the procedure:
as §1, §2

Experiment [4] has as its system E. coli. Description: MIC and MBC of cleanser formulation and components. Type of experiment: cell-based, Escherichia coli. The settings on record: cocamidopropyl betaine alone. The method, then: (§3) The solution containing 10% cocamidopropyl betaine was selected for further testing. The formulation was tested against Pseudomonas aeruginosa, Proteus mirabilis, […] coli, Staphylococcus intermedius, Malassezia pachydermatis, and Candida albicans.

For experiment [5], the system named is Staphylococcus intermedius. Nature of the experiment: MIC and MBC of cleanser formulation and components. Format: cell-based. Conditions: S. intermedius; cocamidopropyl betaine alone. On the procedure: as §3
The test system of experiment [6] is Pseudomonas aeruginosa. Description: MIC and MBC of cleanser formulation and components. The settings on record: P. aeruginosa; cocamidopropyl betaine alone. Format: cell-based. On the procedure:
as §3

Experiment [7] has as its system Proteus mirabilis. Nature of the experiment: MIC and MBC of cleanser formulation and components. Type of experiment: cell-based. Conditions: P. mirabilis; cocamidopropyl betaine alone. The method, then:
as §3

In experiment [8] the test system is Candida albicans. Description: MIC and MBC of cleanser formulation and components. Format: cell-based. The settings on record: C. albicans; cocamidopropyl betaine alone. On the procedure: as §3
Experiment [9] concerns Malassezia pachydermatis. Description: MIC and MBC of cleanser formulation and components. Type of experiment: cell-based. The settings on record: M. pachydermatis; cocamidopropyl betaine alone. On the procedure:
as §3

Experiment [10] deals with Pseudomonas aeruginosa. Nature of the experiment: Minimal Bactericidal Concentration (MBC) of EDTA and neomycin in 50 mM Tris. Format: cell-based. The settings on record: Ps. aeruginosa.
Text: as §1

Experiment [11] relates to Staphylococcus aureus. Described as above. Format: cell-based. Conditions: Staph. aureus.
Text: as §1

In experiment [12] the test system is Enterococcus faecalis. The experiment is described as above. Type of experiment: cell-based.
Text: as §1

For experiment [13], the system named is Pseudomonas aeruginosa. Description: MIC (broth-dilution microtiter) and FIC/isobologram (microtiter checkerboard) of EDTA-Tris and antibiotics. The settings on record: Ps. aeruginosa. Format: cell-based. The method, then:
(§4) Agents and Chem. 210-217. (1967) and Sparks et al., Vet. Res. Comm. 18, 241-249 (1994), incorporated herein by reference in their entireties.
(§5) Then 0.05 ml of an 18-hour old culture of a test organism, containing 10^6 colony-forming units (CFU)/ml, was added to each well. Controls for the culture and media were included in each plate. Plates were covered and incubated at 37° Celsius for 18-24 hours.
(§6) To generate isobolograms, FICs of the two test solutions were plotted individually on the x-axis and y-axis to determine the effect of combining the two test solutions on bacterial growth. A line that curves away from the zero point and the coordinates indicates antagonism.
(§7) A numerical score or fractional inhibitory concentration (FIC) index was determined. The FIC index is equal to the sum of the values of FIC for the individual drugs: [formula]
(§8) An FIC index greater than 1.0 indicates an antagonistic interaction, an FIC index of 1.0 indicates addition, and an FIC index of less than or equal to 0.5 indicates synergism between the two test agents.
as §1

Experiment [14] has as its system Staphylococcus aureus. The description is as above. Type of experiment: cell-based. Conditions: Staph. aureus. On the procedure: as §4, §5, §6, §7, §8, §1
The subject of experiment [15] is Enterococcus faecalis. The description is as above. The settings on record: Ent. faecalis. Type of experiment: cell-based. On the procedure:
as §4, §5, §6, §7, §8, §1

Several values for one entry are separate records, joined by “and”; a condition that tells them apart may be missing. Identical values can stand only once.
For Antibiotic resistance profile in this document: key: R = resistant; I = intermediate; S = sensitive.

`CN[C@H](CC(C)C)C(=O)N[C@H]1C(=O)N[C@@H](CC(N)=O)C(=O)N[C@H]2C(=O)N[C@H]3C(=O)N[C@H](C(=O)N[C@H](C(=O)O)c4cc(O)cc(O)c4-c4cc3ccc4O)[C@H](O)c3ccc(c(Cl)c3)Oc3cc2cc(c3O[C@@H]2O[C@H](CO)[C@@H](O)[C@H](O)[C@H]2O[C@H]2C[C@](C)(N)[C@H](O)[C@H](C)O2)Oc2ccc(cc2Cl)[C@H]1O` [Va, vancomycin]: the Antibiotic resistance profile result in experiment [1] is given as “R”; in experiment [2] it was “S”; in [3], “R”.
In the case of cocamidopropyl betaine, the MBC in experiment [4] was 50% of stock solution; in [5] it was 0.1% of stock solution; in experiment [6], 50% of stock solution; in [7], 50% of stock solution; in experiment [8], 0.3% of stock solution; in experiment [9], 0.3% of stock solution. Moreover, the MIC in experiment [4] is reported as 25% of stock solution; in experiment [5] it was 0.1% of stock solution; in experiment [6], 25% of stock solution; in [7], 25% of stock solution; in [8], 0.1% of stock solution; in [9] it was 0.1% of stock solution.
As to gentamicin [Gm], the Antibiotic resistance profile entry in experiment [1] was “I”; in [2] it was “S”; in [3], “R”.
As for neomycin, the “MBC of Neomycin, Individually Administered” value was determined as 5000 µg/mL in experiment [10]; 3130 µg/mL in [11] (in 50 mM Tris); 25000 µg/mL in experiment [12] (En. faecalis, in 50 mM Tris). The “MBC of Neomycin, Co-administered” value in experiment [10] (with EDTA) worked out at 40 µg/mL; in [11] (with EDTA, in 50 mM Tris), 1560 µg/mL; in experiment [12] (En. faecalis, with EDTA, in 50 mM Tris), 6250 µg/mL. The “Decrease of MBC value when EDTA and neomycin combined compared to individually administered” value in experiment [11] was “about 50% and 50%”; in [12] (Ent. faecalis), 75%. For the same compound, the “MIC, antibiotic Individually Administered” value in experiment [13] (antibiotic alone) was determined as 1000 µg/mL; in [14] (antibiotic alone), 3130 µg/mL; in [15] (antibiotic alone), 3130 µg/mL. For the same compound, the Antibiotic resistance profile result in [1], in experiment [2] and in [3] was “R” throughout.
In the case of `O=C(O)CN(CCN(CC(=O)O)CC(=O)O)CC(=O)O` [EDTA, ethylenediamenetetracetic acid], the “MIC, EDTA Individually Administered” value in [13] (EDTA in 50 mM Tris alone) was found to be 1250 µM; in [14] (EDTA in 50 mM Tris alone), 1000 µM; in [15] (EDTA in 50 mM Tris alone), 15630 µM.

(Values after patent US20040208842A1, “Antimicrobial cleansing compositions and methods of use” (priority 2001, published 2004).)
